How the values were obtained:
Test in all cases: Expanded lung cancer cell line proliferation assay
Type in all cases: cell-based
[1] = tested on: BEN; details: 72 h, average of PrestoBlue and Cell Titer Glo, AKR1C3 2573.5 TPM, read-out: Absolute Qualified AC50
Method in brief: (§1)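 Activity was scored after 72 h of compound treatment, with AC50 derived from dose-response curves normalized between 0.3% DMSO and 30 μM MG132 controls. Top final concentration was 1 μM across 8 points, and each value averages PrestoBlue and CellTiter-Glo results.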

[2] = tested on: NCI-H226; details: Homo sapiens; NCI-H226, 72 h, average of PrestoBlue and Cell Titer Glo; AKR1C3 2.9 TPM; read-out: Absolute Qualified AC50
Method in brief: as §1

[3] = tested on: RERF-LC-AI; details: 72 h, average of PrestoBlue and Cell Titer Glo, AKR1C3 7.6 TPM, read-out: Absolute Qualified AC50
Method in brief: as §1

[4] = tested on: NCI-H1339; details: NCI-H1339, 72 h, average of PrestoBlue and Cell Titer Glo; AKR1C3 5.2 TPM; read-out: Absolute Qualified AC50
Method in brief: as §1

[5] = tested on: LK2; details: Homo sapiens, LK-2; LK2, 72 h, average of PrestoBlue and Cell Titer Glo; AKR1C3 1107 TPM; read-out: Absolute Qualified AC50
Method in brief: as §1

[6] = tested on: NCI-H596; details: Homo sapiens; NCI-H596, 72 h, average of PrestoBlue and Cell Titer Glo; AKR1C3 265.6 TPM; read-out: Absolute Qualified AC50
Method in brief: as §1

[7] = tested on: DV-90; details: Homo sapiens; DV-90, 72 h, average of PrestoBlue and Cell Titer Glo; AKR1C3 48.9 TPM; read-out: Absolute Qualified AC50
Method in brief: as §1

[8] = tested on: A549; details: Homo sapiens; A549, 72 h, average of PrestoBlue and Cell Titer Glo; AKR1C3 3017.9 TPM; read-out: Absolute Qualified AC50
Method in brief: as §1

[9] = tested on: HCC2108; details: HCC2108, 72 h, average of PrestoBlue and Cell Titer Glo; AKR1C3 0.5 TPM; read-out: Absolute Qualified AC50
Method in brief: as §1

[10] = tested on: HCC95; details: Homo sapiens; HCC95, 72 h, average of PrestoBlue and Cell Titer Glo; AKR1C3 939.1 TPM; read-out: Absolute Qualified AC50
Method in brief: as §1

[11] = tested on: NCI-H520; details: Homo sapiens; NCI-H520, 72 h, average of PrestoBlue and Cell Titer Glo; AKR1C3 608.9 TPM; read-out: Absolute Qualified AC50
Method in brief: as §1

[12] = tested on: NCI-H322; details: NCI-H322, 72 h, average of PrestoBlue and Cell Titer Glo; AKR1C3 21 TPM; read-out: Absolute Qualified AC50
Method in brief: as §1

[13] = tested on: NCI-H1792; details: Homo sapiens; NCI-H1792, 72 h, average of PrestoBlue and Cell Titer Glo; AKR1C3 418.6 TPM; read-out: Absolute Qualified AC50
Method in brief: as §1

[14] = tested on: NCI-H1581; details: Homo sapiens; NCI-H1581, 72 h, average of PrestoBlue and Cell Titer Glo; AKR1C3 1.9 TPM; read-out: Absolute Qualified AC50
Method in brief: as §1

| Compound | AC50 [1] [nM] | AC50 [2] [nM] | AC50 [3] [nM] | AC50 [4] [nM] | AC50 [5] [nM] | AC50 [6] [nM] | AC50 [7] [nM] | AC50 [8] [nM] | AC50 [9] [nM] | AC50 [10] [nM] | AC50 [11] [nM] | AC50 [12] [nM] | AC50 [13] [nM] | AC50 [14] [nM] |
| --- | --- | --- | --- | --- | --- | --- | --- | --- | --- | --- | --- | --- | --- | --- |
| CN1c2ccc(F)cc2C(=O)CC12CCN(C(=O)NCc1ccc(F)c(NCCO)c1)CC2 [Example 36, 6′-fluoro-N-(4-fluoro-3-((2-hydroxyethyl)amino)benzyl)-1′-methyl-4′-oxo-3′,4′-dihydro-1′H-spiro[piperidine-4,2′-quinoline]-1-carboxamide] | 399 | > 1000 | > 1000 | > 1000 | > 1000 | 754 | 347 | 301 | > 1000 | 287 | > 1000 | > 1000 | 553 | > 1000 |
| O=C1CC2(CCN(C(=O)NCc3ccc(F)cc3)CC2)Nc2ccc(F)cc21 [Example 40] | 57 | > 1000 | > 1000 | > 1000 | > 1000 | 334 | 159 | 56 | > 1000 | 69 | > 1000 | > 1000 | 196 | > 1000 |

Source: US11970497B2, “Tricyclic AKR1C3 dependent KARS inhibitors” (Novartis AG, priority 2019, dated 2024)
